Source: US20240124458A1, “POLYMORPHS OF AVAPRITINIB AND METHODS FOR PREPARING THE POLYMORPHS” (Macfarlan Smith Limted, priority 2020, published 2024)

Experiment: Gravimetric vapour sorption (GVS) isotherm, with XRPD after analysis
Type: physicochemical
Settings: for water uptake (GVS isotherm plot): 25° C./90% RH; for XRPD after GVS analysis (change in form): after GVS cycles, 0-90% RH at 25° C.
Description: XRPD diffractograms were collected on a Bruker D8 diffractometer using Cu Kα radiation (40 kV, 40 mA) and a θ-2θ goniometer fitted with a Ge monochromator. The incident beam passes through a 2.0 mm divergence slit followed by a 0.2 mm anti-scatter slit and knife edge. The diffracted beam passes through an 8.0 mm receiving slit with 2.5° Soller slits followed by the Lynxeye Detector. The software used for data collection and analysis was Diffrac Plus XRD Commander and Diffrac Plus EVA respectively.
Hygroscopicity of a solid material may be determined by means of gravimetric vapour sorption (GVS) analysis, sometimes known by dynamic vapour sorption (DVS) analysis.
The experiment subjects a sample material which is held in a fine wire basket on a microbalance within a temperature and humidity controlled environment (chamber). Using the software, the collected data can then be processed to determine the isotherm points at the increment ranges specified during the experiment and show the overall water uptake of the material.
Sorption isotherms were obtained using a SMS DVS Intrinsic moisture sorption analyser, controlled by DVS Intrinsic Control software. The sample temperature was maintained at 25° C. by the instrument controls. The humidity was controlled by mixing streams of dry and wet nitrogen, with a total flow rate of 200 ml/min. The relative humidity was measured by a calibrated Rotronic probe (dynamic range of 1.0-100% RH), located near the sample. The weight change, (mass relaxation) of the sample as a function of %RH was constantly monitored by a microbalance (accuracy ±0.005 mg).
Typically, 5-30 mg of sample was placed in a tared mesh stainless steel basket under ambient conditions. The sample was loaded and unloaded at 40% RH and 25° C. (typical room conditions). A moisture sorption isotherm was performed as outlined below (2 scans per complete cycle). The standard isotherm was performed at 25° C. at 10% RH intervals over a 0-90% RH range. Typically, a double cycle (4 scans) was carried out. Data analysis was carried out within Microsoft Excel using the DVS Analysis Suite.

Row | water uptake (GVS isotherm plot) | XRPD after GVS analysis (change in form) | SMILES
1 | about 0.1 % w/w | unchanged | Cn1cc(-c2cc3c(N4CCN(c5ncc([C@@](C)(N)c6ccc(F)cc6)cn5)CC4)ncnn3c2)cn1 [avapritinib anhydrate, (1S)-1-(4-fluorophenyl)-1-[2-[4-[6-(1-methylpyrazol-4-yl)pyrrolo[2,1-f][1,2,4]triazin-4-yl]piperazin-1-yl]pyrimidin-5-yl]ethanamine]
2 | about 4.0 % w/w | unchanged | Cn1cc(-c2cc3c(N4CCN(c5ncc([C@@](C)(N)c6ccc(F)cc6)cn5)CC4)ncnn3c2)cn1 [avapritinib hydrate, (1S)-1-(4-fluorophenyl)-1-[2-[4-[6-(1-methylpyrazol-4-yl)pyrrolo[2,1-f][1,2,4]triazin-4-yl]piperazin-1-yl]pyrimidin-5-yl]ethanamine]
